From US11759520B1, “Theranostics for protein misfolding diseases” (UNM Rainforest Innovations, priority 2018, dated 2023)

How the values were obtained:
[1] = target: T1, Aβ40 fibrils (Homo sapiens, UniProt P05067); experiment: Effect of oxidation on Aβ40 fibril morphology and secondary structure (TEM, CD); type: biochemical; conditions: irradiated with photosensitizer
T1 construct: mixed with Aβ40 fibrils (5 μM) incubated in Tris pH 8.0 (A) or PB pH 7.4 (B)

[2] = target: Aβ40 monomers (Homo sapiens, UniProt P05067); experiment: Photo-oxidation of Aβ40 monomers (DNPH dot blot, RP-HPLC, MS, amino acid analysis); type: biochemical; conditions: 4 hour irradiation
Description: To evaluate the potency of OPE to selectively photo-oxidize Aβ40 fibrils over the monomeric counterpart, the oxidation state of both Aβ40 fibrils and monomers were characterized and were compared to MB. The carbonyl content of the protein was monitored by DNPH dot blot, which increases as a result of histidine photooxidation.^20
DNPH dot blot was carried out on Aβ40 fibrils and monomers incubated in the dark or under irradiation between 0 to 6 hours (FIGS. 9A and 9B). […] Slightly higher carbonyl content in Aβ fibrils at time 0 h in the presence of MB could be due to short light exposure during sample preparation causing MB to photosensitize the oxidation of Aβ fibrils.
To confirm this observation, Aβ40 monomers were analyzed by reverse phase HPLC (RP-HPLC), mass spectrometry (MS), and amino acid analysis (FIGS. 10A and B), before and after irradiation in the presence of OPE1− and MB.

[3] = target: T2, Aβ42 peptide (Homo sapiens, UniProt P05067); experiment: Fluorescence spectra with unincubated (oligomeric) and incubated (fibrillar) Aβ42 peptide; type: binding; conditions: ThT 20 μM, OPE 1 μM, Aβ42 5 μM
T2 construct: in the presence of unincubated (oligomeric) and incubated (fibrillar) Aβ42 peptide (5 μM)

[4] = target: T1, Aβ40 fibrils; experiment: Fluorescence sensing of Aβ40 fibrils over monomers (ADF, LOD); type: binding
[5] = tested on: α-synuclein; experiment: Excitation and emission spectra with α-synuclein isoforms; type: binding; conditions: 6 days of incubation
[6] = target: T1, Aβ40 fibrils; experiment: Fluorescence sensing of Aβ40 fibrils over monomers (ADF, LOD); type: binding; conditions: 5 to 1 protein to sensor molar ratio
Description: Quantitative assessment of OPE sensor performance towards A1340 fibrils at a 5 to 1 protein to sensor molar ratio was analyzed by calculating an amyloid detector factor using the equation shown in FIG. 13, where F(dye-in-buffer), F(dye+fibrils) and F(dye+monomers) are the integrated emission intensities for sensor alone, sensor in the presence of fibrils, and sensor in the presence of monomers, respectively. Using this equation, positive ADF values indicate selective sensing of fibrils over monomers, while negative ADF values indicate selective sensing of monomers. ADF values close to zero indicate no selective sensing.

[7] = Aβ40 fibrils produced in pH 7.4 PB
[8] = Aβ40 fibrils produced in pH 8.0 Tris

T1 sequence (P05067 672-711 limits assumed): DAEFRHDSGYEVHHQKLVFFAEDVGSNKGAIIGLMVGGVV
T2 sequence (P05067 672-713 limits assumed): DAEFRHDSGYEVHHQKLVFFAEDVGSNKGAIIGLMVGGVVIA
Aβ40 monomers, sequence (P05067 672-711 limits assumed): as the sequence (P05067 672-711 limits assumed) above

Compound: CN(C)c1ccc2nc3ccc(=[N+](C)C)cc-3sc2c1 [MB, methylene blue, reference compound]
- Aβ40 fibril morphology after irradiation (TEM) [1]: fibrils dissociated and broke into shorter structures
- changes of Aβ40 monomers after irradiation [2]: become more hydrophilic, present higher m/z ratio, and have a lower histidine content

Compound: Cc1ccc2c(c1)sc(-c1ccc(N(C)C)cc1)[n+]2C.[Cl-] [ThT, thioflavin T, reference compound]
- fluorescence increase with fibrillar (incubated) Aβ42 [3]: large fluorescence increases
- fluorescence increase with oligomeric (unincubated, prefibrillar) Aβ42 [3]: small fluorescence increases
- LOD (Limit of Detection), Aβ40 in PB [4, 7]: 0.69 ± 0.05 µM
- LOD (Limit of Detection), Aβ40 in Tris [4, 8]: 0.65 ± 0.05 µM
- detection of prefibrillar α-synuclein aggregates [5]: only able to detect A53T aggregates after 6 days of incubation
- ADF (Amyloid Detection Factor), Aβ40 in PB [6, 7]: 0.23 +/− 0.03
- ADF (Amyloid Detection Factor), Aβ40 in Tris [6, 8]: 0.53 +/− 0.1
